Experimental data published in patent US20240002846A1, “COMPOSITIONS AND METHODS FOR THE DIAGNOSIS AND TREATMENT OF ITCH” (Duke University, priority 2020, published 2024).
Entries after “also recorded” stand apart in the source; their conditions may differ.

Columns and labels:
[1] = test system: extracellular release of miR-146a; assay: Extracellular release of miRs from cultured mouse keratinocytes (RT-qPCR); type: cell-based; settings: mouse keratinocytes
Protocol: Primary mouse keratinocytes were cultured following previous protocol (Chen et al. J. Biol. Chem. 2016, 291, 10252-10262). The epidermis from the back skin of newborn WT or keratinocyte-Trpv4 cKO mice was separated from the dermis by floating the skin on 0.25% trypsin (Gibco, Gaithersburg, MD) for 14-18 h at 4° C. Basal keratinocytes were separated from the cornified sheets by filtration through a […] cell strainer. Keratinocytes were plated on collagen I-coated dishes or glass coverslips and grown in EME media (Gibco, Gaithersburg, MD) containing 8% chelex (Bio-rad, Hercules, CA)-treated FBS with the final Ca^2+ adjusted to 0.05 mM, bovine pituitary extract (50 μg/mL), epidermal growth factor (5 ng/mL), and lx antibiotics/antimycotics (Gibco, Gaithersburg, MD) in a humidified incubator with 5% CO2 at 37° C. for 5-7 days until use. To knockdown Trpv4 in isolated keratinocytes from newborn keratinocyte-Trpv4 cKO mice, cells were treated with 4-OH tamoxifen at 500 nM for 72 h.
Measurement of released vesicles and extracellular miR-146a from cultured keratinocytes or sera Medium for the cultured keratinocytes was replaced with serum-free medium 2 h before LPC stimulation. […] Finally, cell-free supernatants were further purified using a Vesicular Isolation kit (Invitrogen, Waltham, MA) according to the manufacturer's instructions, with final product resuspended in ice-cold PBS. Total RNA extraction was then carried out using a Total RNA Isolation kit (Invitrogen, Waltham, MA). Enrichment for small RNAs was carried out by sequential increase in ethanol concentration and passing through glass-fiber filters. RNase free water was used to elute small RNAs in the final elution step. For human PBC sera or sera from ANIT-treated mice, RNA was isolated using Qiagen miRNeasy Plasma/Serum kit. cDNA synthesis from extracted RNAs was performed according to manufacturer's instructions (qSTAR miRNA kit, Origene). For qPCR, the stem-loop oligonucleotides specific for the following miRs are as follows: miR-146a-5p (GAGAACTGAATTCCATGGG, SEQ ID NO: 4), miR-let-7b (GAGGTAGTAGGTTGTGTGG, SEQ ID NO: 5), miR-125b-1 (CCCT GAGACCCTAACTTG, SEQ ID NO: 6), miR-203 (GTGGTTC TTGACAGTTCAAC, SEQ ID NO: 7), and miR-16-5p (AGCAGCAC GTAAATATTGGC, SEQ ID NO: 8). Primers were purchased from Integrated DNA Technologies company (Coralville, IA). qPCR reactions for each sample were run in triplicates, including no-template controls. MiR-16-5p was selected as a control due to the relative constancy of its expression in various cultured cell lines (Schwarzenbach et al. Clin. Chem. 2015, 61, 1333-1342). qPCR for this miR was performed in tandem with target miRs to determine the optimal normalization procedure. To investigate the effects of the specific TRPV4 inhibitors GSK205 or HC067047 and the specific MEK inhibitor U0126 on LPC-induced extracellular release of miR-146a, cells were incubated with the inhibitors for 15 min before stimulation. Control cells received the same volume of vehicle.
Vesicular release from cultured keratinocytes was quantified by detecting acetylcholinesterase (AChE) activity in the extracellular release fluid. (Gupta et al. Am. J. Physiol. Heart Circ. Physiol. 2007, 292, H3052-3056; Malik et al. Methods Mol. Biol. 2016, 1448, 237-248). CBQCA Protein Quantitation Kit (Molecular Probes, Eugene, OR) was used to assess the total protein amounts of each sample. Quantitation was carried out according to kit instructions (Fluorocet, Systems Biosciences, Palo Alto, CA). Briefly, vesicles were lysed to release esterase enzyme whose activity is measured using a florescence dye, excitation at 544 nm and emission at 590 nm. Fluostar Optima (BMG Labtech, Cary, NC) microplate reader was used to measure esterase activity. 500 ng protein equivalent of input was used per well. […]

[2] = test system: mice; assay: Effect of inhibitor pretreatment on LPA-, LPC- or miR-146a-induced scratching behavior; type: in vivo, mouse

N#CC(=C(/N)Sc1ccccc1N)/C(C#N)=C(\N)Sc1ccccc1N [U0126]
effect of MEK inhibitor on LPC-induced release of miR-146a ([1]; 10 μM): eliminated; also recorded: abolished | effect on LPC-induced itch (MEK inhibitor) ([2]; i.d. pretreatment 20 μg/50 μL): significant reduction; also recorded: significantly attenuated

Cc1c(C(=O)Nc2cccc(C(F)(F)F)c2)cc(-c2ccccc2)n1CCCN1CCOCC1 [HC067047]
effect of TRPV4 inhibitors on LPC-induced release of miR-146a ([1]; inhibitor 10 μM): completely eliminated | effect on LPC-induced itch (TRPV4 inhibitors) ([2]; WT mice, i.p. pretreatment 20 mg/kg): a reduction | effect on LPA (18:1)-induced itch ([2]; WT mice, i.p. pretreatment 20 mg/kg, LPA 500 μg i.d.): no significant reduction in scratching; also recorded: not significantly altered | effect on LPC-induced itch (TRPV4 inhibitors) ([2]; WT mice, i.p. pretreatment 20 mg/kg, listed as HC067): significantly reduced
